SMILES strings stand for the structures.

Data set [1] concerns cryopreserved human hepatocytes in primary culture. The experiment in a line: Unchanged drug disappearance / intrinsic metabolic clearance in primary cultures of cryopreserved human hepatocytes. In kind it is in vitro ADME. Particulars: for In vitro intrinsic hepatic clearance, Mean ± SD: mean of four hepatocyte preparations. On the procedure:
Cryopreserved human hepatocytes were plated on 48-well collagen-coated plastic plates in a chemically defined medium adapted from Isom and Georgoff ([1984]), consisting of a 50/50 (v/v) mixture of Ham F12/Williams E medium supplemented with 10% decomplemented fetal calf serum, 10 mg/L insulin, 0.8 mg/L glucagon and antibiotics (100 IU penicillin and 100 μg/mL streptomycin). After 4–6 h at 37°C in a 5% CO2 and 100% humidified atmosphere, period during which hepatocytes attached to the collagen-matrix, the plating medium was removed and replaced by the same serum-free culture medium supplemented with HEPES (3.6 g/L), ethanolamine (4 mg/L), transferrin (10 mg/L), linoleic acid albumin (1.4 mg/L), glucose (252 mg/L), sodium pyruvate (44 mg/L), ascorbic acid (50 mg/L), arginine (104 mg/L), and L-glutamine (0.7 g/L).
(§1) Experiments were performed in 48-well plastic plates coated with rat tail Collagen type I. Plates were seeded with 0.16 × 10^5 hepatocytes per well in a final volume of 0.2 mL and incubated at 37°C under a 95% humidified air and 5% CO2 atmosphere. After 3 h during which cells were allowed to attach, the medium was renewed with 0.1 mL serum-free medium. Then, the investigated drug or metabolic probe(s) were added directly to the incubation medium in the absence or the presence of inhibitors such as either ketoconazole as a specific and potent CYP3A inhibitor (3 μmol/L final concentration), clorgyline (0.25 μmol/L final concentration) as a potent MAO-A inhibitor or ABT as a potent but nonselective CYP isoforms inhibitor (1 mmol/L final concentration) (Fabre et al. [1988]; Bourrié et al. [1996]; Klieber et al. [2008]). Regardless of the final concentration investigated, the final solvent (DMSO) concentration never exceeded 0.2% (v/v).
(§2) To determine the metabolism of the different compounds (metabolic probes, dronedarone, N-debutyl-dronedarone, propanoic acid-dronedarone, phenol-dronedarone, and C-dealkyl-dronedarone), kinetic studies were performed over 0–24 h. For each time point, 0.1 mL of acetonitrile was added to the specific well for protein precipitation, and both extracellular medium and the cell fraction were scraped together. Cell extracts were transferred to a glass tube and stored at −20°C until analysis. Before analysis, cell homogenates were sonicated for a few seconds, homogenized and centrifuged at 6000 g for 10 min. Supernatant fluids were then analyzed for the different drugs and their specific metabolites.
LC/MS-MS analysis was performed using an Acquity UPLC System I-Class equipped with a Waters Acquity UPLC BEH C18 column (2.1 mm i.d. × 100 mm length, 1.7 μm particle size) coupled to a Xevo TQS mass spectrometer (all from Waters, Milford, MA) used in electrospray ion positive mode.
In human hepatocytes, the intrinsic in vitro metabolic clearances (Clint) were calculated using WinNonLin PK analysis software version 5.2. All disappearance kinetics data were fitted with a model using the following equation: [drawing 2] where ke is the elimination rate constant expressed in h^−1, and V is the incubation volume expressed in mL normalized to 10^6 hepatocytes. The equation was applied to the initial (linear) part of the concentration–time curve.
(§3) The kinetics of drug disappearance were investigated using four different cryopreserved human hepatocyte preparations in primary cultures following incubation with either dronedarone or its metabolites at a concentration of 5 μmol/L. Incubations were performed either in the absence, that is control conditions, or in the presence of enzyme system inhibitors such as 3 μmol/L ketoconazole (specific and potent inhibitor of CYP3A4/5), 1 mmol/L ABT (a potent and […] inhibitor of total CYPs), or 0.25 μmol/L clorgyline (a potent MAO-A inhibitor) (Dorris [1982]). Kinetic studies were performed over 24 h.

A further data set relates to Total CYPs. Description: Contribution of total CYPs to hepatocyte clearance (1-aminobenzotriazole inhibitory effect). It is filed as in vitro ADME, human. Particulars: for Effect of ABT on metabolism in hepatocytes (words): 1 mmol/L ABT, 5 μmol/L drug; for fm Total CYPs, Mean ± SD: mean of hepatocyte preparations. How it is done: as §1, §2
The fraction metabolized (fm) by MAO, CYP3A or total CYPs was determined using the following equation: [drawing 3] where: kei is the elimination rate constant (expressed in h^−1) in the presence of the inhibitor.
as §3

Data set [2] concerns UGT1A1, UGT1A3, UGT1A4, UGT1A6, UGT1A7, UGT1A8, UGT1A9, UGT1A10, UGT2B4, UGT2B7, UGT2B15, and UGT2B17. The experiment in a line: Glucuronidation by the panel of recombinant human UGT isoforms. In kind it is in vitro ADME. Particulars: 1 mg/mL, 5 μmol/L, 30 min, UDPGA. From the text:
Recombinant human CYPs (Supersomes™; BD Gentes, Woburn, MA: CYP1A1, CYP1A2, CYP2A6, CYP2B6, CYP2C8, CYP2C9, CYP2C18, CYP2C19, CYP2D6, CYP2E1, CYP3A4 and CYP3A5), FMOs (Supersomes™: FMO1, FMO3, FMO5), MAOs (Supersomes™: MAO-A and MAO-B), and UGTs (Supersomes™: UGT1A1, UGT1A3, UGT1A4, UGT1A6, UGT1A7, UGT1A8, UGT1A9, UGT1A10, UGT2B4, UGT2B7, UGT2B15, and UGT2B17) expressed in baculovirus-infected insect cells and control microsomes from insect cells infected with wild-type baculovirus were all obtained from BD Gentest (Woburn, MA).
For glucuronidation pathways, the assay mixture was composed of human liver microsomes (2 mg·mL^−1) or microsomes of baculovirus-infected cells expressing human UGTs (1 mg·mL^−1), uridine 5′-diphosphoglucuronic acid (UDPGA) (3 mmol/L), 100 mmol/L Tris HCl (pH 7.4) containing 5 mmol/L MgCl2 and 5 μmol/L of the investigated compound dissolved in DMSO in a final volume of 500 μL. The final concentration of DMSO in the reaction mixture was less than 1% (v/v). Initial rate conditions with respect to time and protein concentration for both the disappearance of unchanged drug and the formation of respective metabolites were established in preliminary studies. The microsomal mixture was first incubated for 10 min at 4°C in the presence of alamethicin (0.125 mg·mL^−1), then the reaction was initiated by addition of UDPGA (30 mmol/L aqueous solution) to achieve a final concentration of 3 mmol/L for UGT-dependent reactions, incubated at 37°C and stopped after 0–30 min by addition of one volume of ice-cold acetonitrile. […]
Figure 7 Contribution of individual UGTs to the glucuronidation of propanoic acid-dronedarone and phenol-dronedarone. […] Unchanged drugs were quantified by LC/MS-MS relative to the synthetic references as described in Materials and Methods. Data are expressed as the percentage of glucuronidation.

Setting [3] is: hepatocyte preparation BD-91, 5 μmol/L.
Where [4] appears, read: hepatocyte preparation BD-296, 5 μmol/L.
Setting [5] is: hepatocyte preparation HU-1359, 5 μmol/L.
Setting [6] is: hepatocyte preparation IVT-IBG, 5 μmol/L.
The mark [7] stands for this setting: BD-91, 1 mmol/L 1-aminobenzotriazole.
Setting [8] is: BD-296, 1 mmol/L 1-aminobenzotriazole.
The mark [9] stands for this setting: HU-1358, 1 mmol/L 1-aminobenzotriazole.
Setting [10] is: IVT-IBG, 1 mmol/L 1-aminobenzotriazole.

As to `CCCCc1oc2ccc(NS(C)(=O)=O)cc2c1C(=O)c1ccc(OCCC(=O)O)cc1` [Propanoic acid-dronedarone], the “In vitro intrinsic hepatic clearance” value in data set [1] (setting [3]) amounted to 0.06 mL·h^−1·10^6 cells; in data set [1] (setting [4]), 0.17 mL·h^−1·10^6 cells; in data set [1] (setting [5]), 0.20 mL·h^−1·10^6 cells; in data set [1] (setting [6]) it was 0.14 mL·h^−1·10^6 cells. Moreover, the “In vitro intrinsic hepatic clearance, Mean ± SD” value in data set [1] (5 μmol/L) amounted to 0.14 ± 0.05 mL·h^−1·10^6 cells. For the same molecule, in the data set on Total CYPs, the “Effect of ABT on metabolism in hepatocytes (words)” value (from here on “Effect of ABT on metabolism”) was “potently inhibited”. In addition, the “fm Total CYPs” value is 87% in the data set on Total CYPs (setting [7]), 92% with Total CYPs (setting [8]), 91% in the data set on Total CYPs (setting [9]) and 89% with Total CYPs (setting [10]). In addition, in the data set on Total CYPs (1 mmol/L 1-aminobenzotriazole), the “fm Total CYPs, Mean ± SD” value was 90 ± 3%.

In the case of `CCCCN(CCCC)CCCOc1ccc(C(=O)O)cc1` [C-dealkyl-dronedarone], the “In vitro intrinsic hepatic clearance” value in data set [1] (setting [3]) was found to be 0.003 mL·h^−1·10^6 cells; in data set [1] (setting [4]), 0.002 mL·h^−1·10^6 cells; in data set [1] (setting [5]) it was 0.004 mL·h^−1·10^6 cells; in data set [1] (setting [6]), 0.003 mL·h^−1·10^6 cells. In data set [1] (5 μmol/L), the “In vitro intrinsic hepatic clearance, Mean ± SD” value was 0.003 ± 0.001 mL·h^−1·10^6 cells. Further, in data set [2], the “Glucuronidation by recombinant human UGT isoforms” value (from here on “Glucuronidation”) is “No glucuronidation was observed”. Besides, the “Effect of ABT on metabolism” value in the data set with Total CYPs was “no effect”.

For the molecule `CCCCNCCCOc1ccc(C(=O)c2c(CCCC)oc3ccc(NS(C)(=O)=O)cc23)cc1` [N-debutyl-dronedarone], the “In vitro intrinsic hepatic clearance” value turned out to be 0.18 mL·h^−1·10^6 cells in data set [1] (setting [3]), 0.10 mL·h^−1·10^6 cells in data set [1] (setting [4]), 0.10 mL·h^−1·10^6 cells in data set [1] (setting [5]) and 0.08 mL·h^−1·10^6 cells in data set [1] (setting [6]). Moreover, the “Mean maximal concentration of metabolite formed” value in data set [1] (hepatocytes incubated with 5 μmol/L dronedarone, control conditions without inhibitors) is “around 0.6 μmol/L”. Further, the “In vitro intrinsic hepatic clearance, Mean ± SD” value in data set [1] (5 μmol/L) was 0.13 ± 0.03 mL·h^−1·10^6 cells. The “Glucuronidation” value in data set [2] is reported as “No glucuronidation was observed”. Besides, the “Effect of ABT on metabolism” value in the data set with Total CYPs is reported as “moderately decreased its metabolic rate”. Besides, the “fm Total CYPs” value in the data set on Total CYPs (setting [7]) turned out to be 67%; in the data set with Total CYPs (setting [8]), 48%; with Total CYPs (setting [9]), 51%; with Total CYPs (setting [10]), 54%. The “fm Total CYPs, Mean ± SD” value in the data set on Total CYPs (1 mmol/L 1-aminobenzotriazole) is listed as 55 ± 7%.

In the case of `CCCCc1oc2ccc(NS(C)(=O)=O)cc2c1C(=O)c1ccc(O)cc1` [Phenol-dronedarone], the “In vitro intrinsic hepatic clearance” value in data set [1] (setting [3]) is reported as 0.44 mL·h^−1·10^6 cells; in data set [1] (setting [4]) it was 0.70 mL·h^−1·10^6 cells; in data set [1] (setting [5]), 0.57 mL·h^−1·10^6 cells; in data set [1] (setting [6]), 0.75 mL·h^−1·10^6 cells. In addition, the “In vitro intrinsic hepatic clearance, Mean ± SD” value in data set [1] (5 μmol/L) worked out at 0.62 ± 0.12 mL·h^−1·10^6 cells; in data set [1] (5 μmol/L, listed as phenol-dronedarone), 0.61 ± 0.12 mL·h^−1·10^6 cells. Besides, the figures for the “Effect of ABT on metabolism” value in the data set on Total CYPs and in the data set with Total CYPs (listed as phenol-dronedarone) were “did not contribute” and “no significant effect”, respectively.

In the case of `CCCCc1oc2ccc(NS(C)(=O)=O)cc2c1C(=O)c1ccc(OCCCN(CCCC)CCCC)cc1.Cl` [Dronedarone, N-(2-Butyl-3-(4-(3-(dibutylamino)propoxy)benzoyl)-5-benzofuranyl)methanesulfonamide, hydrochloride], the “Drug metabolized within 6 h of incubation” value in data set [1] (5 μmol/L, control conditions) was “more than 80%”. For the same molecule, the “In vitro intrinsic hepatic clearance” value in data set [1] (setting [3]) is given as 0.49 mL·h^−1·10^6 cells; in data set [1] (setting [4]), 0.58 mL·h^−1·10^6 cells; in data set [1] (setting [5]), 0.14 mL·h^−1·10^6 cells; in data set [1] (setting [6]), 0.10 mL·h^−1·10^6 cells. Moreover, in data set [1] (5 μmol/L), the “In vitro intrinsic hepatic clearance, Mean ± SD” value is 0.33 ± 0.21 mL·h^−1·10^6 cells. Further, the “Glucuronidation” value in data set [2] was “No glucuronidation was observed”. In the data set with Total CYPs, the “Effect of ABT on metabolism” value is recorded as “predominant inhibitory effect”. The “fm Total CYPs” value in the data set on Total CYPs (setting [7]) amounted to 98%; with Total CYPs (setting [8]), 99%; with Total CYPs (setting [9]), 98%; in the data set on Total CYPs (setting [10]), 95%. For the same molecule, the “fm Total CYPs, Mean ± SD” value in the data set with Total CYPs (1 mmol/L 1-aminobenzotriazole) was 98 ± 2%.

The record behind these values is publication PMC4186413, “Identification of metabolic pathways and enzyme systems involved in the in vitro human hepatic metabolism of dronedarone, a potent new oral antiarrhythmic drug” (Pharmacology Research & Perspectives, 2014).
